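The compound was tested at five concentrations on cells cultured in 96-well plates, with a 48-hour exposure period. GI50 marks 50% less growth.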 Activity calls are given as the source filed them. Rule as the data show it: active = GI50 up to about 1.1 µM and inactive = higher.
Legend:
Experiment in all cases: growth of human tumour cells (NCI), 48 h
[1] = tested on: ACHN
[2] = tested on: SF-268
[3] = tested on: SNB-75
[4] = tested on: OVCAR-8
[5] = tested on: M14
[6] = tested on: HCT-15
[7] = tested on: SN12C
[8] = tested on: UACC-62
[9] = tested on: MDA-MB-435
[10] = tested on: T47D
[11] = tested on: A549
[12] = tested on: SNB-19
[13] = tested on: SF-539
[14] = tested on: SW-620
[15] = tested on: MOLT-4
[16] = tested on: HCC 2998
[17] = tested on: BT-549
[18] = tested on: 786-0
[19] = tested on: U-251
[20] = tested on: SK-OV-3
[21] = tested on: A498
[22] = tested on: PC-3
[23] = tested on: UO-31
[24] = tested on: SK-MEL-28
[25] = tested on: HOP-92
[26] = tested on: MCF7
[27] = tested on: MDA-N
[28] = tested on: TK-10
[29] = tested on: CAKI-1
[30] = tested on: OVCAR-3
[31] = tested on: HCT-116
[32] = tested on: OVCAR-5
[33] = tested on: SF-295
[34] = tested on: DU-145
[35] = tested on: NCI/ADR-RES
[36] = tested on: MDA-MB-231
[37] = tested on: RPMI-8226
[38] = tested on: SR
[39] = tested on: HOP-62
[40] = tested on: IGROV-1
[41] = tested on: KM12
[42] = tested on: LOX IMVI
[43] = tested on: COLO 205
[44] = tested on: NCI-H460
[45] = tested on: K562
[46] = tested on: UACC-257
[47] = tested on: Hs-578T
[48] = tested on: RXF 393
[49] = tested on: CCRF-CEM
[50] = tested on: OVCAR-4
[51] = tested on: HT-29
[52] = tested on: HL-60
[53] = tested on: NCI-H23
[54] = tested on: SK-MEL-2
[55] = tested on: EKVX
[56] = tested on: NCI-H226
[57] = tested on: Malme-3M
[58] = tested on: NCI-H522
[59] = tested on: SK-MEL-5

`Cc1cn(CCCCCOC(=O)NC(CCCNC(N)=O)C(=O)O)c(=O)[nH]c1=O` (centres undefined) was tested, and the GI50 [1] was > 100 µM (inactive), the GI50 [2] was > 100 µM (inactive) and the GI50 [3] was > 100 µM (inactive). The GI50 [4] was > 100 µM (inactive), the GI50 [5] was > 100 µM (inactive) and the GI50 [6] was greater than 100 µM. For the same compound, the GI50 [7] was > 100 µM (inactive), the GI50 [8] was > 100 µM (inactive) and the GI50 [9] was > 100 µM (inactive). For the same compound, the GI50 [10] was > 100 µM (inactive), the GI50 [11] was > 100 µM (inactive) and the GI50 [12] was > 100 µM (inactive). For the same compound, the GI50 [13] was > 100 µM (inactive), the GI50 [14] was > 100 µM (inactive) and the GI50 [15] was > 100 µM (inactive). The GI50 [16] was > 100 µM (inactive), the GI50 [17] was > 100 µM (inactive) and the GI50 [18] was > 100 µM (inactive). For the same compound, the GI50 [19] was > 100 µM (inactive), the GI50 [20] was > 100 µM (inactive) and the GI50 [21] was > 100 µM (inactive). For the same compound, the GI50 [22] was > 100 µM (inactive), the GI50 [23] was > 100 µM (inactive) and the GI50 [24] was > 100 µM (inactive). For the same compound, the GI50 [25] was > 100 µM (inactive), the GI50 [26] was > 100 µM (inactive) and the GI50 [27] was > 100 µM (inactive). For the same compound, the GI50 [28] was > 100 µM (inactive), the GI50 [29] was > 100 µM (inactive) and the GI50 [30] was > 100 µM (inactive). For the same compound, the GI50 [31] was > 100 µM (inactive), the GI50 [32] was > 100 µM (inactive) and the GI50 [33] was > 100 µM (inactive). For the same compound, the GI50 [34] was > 100 µM (inactive), the GI50 [35] was > 100 µM (inactive) and the GI50 [36] was > 100 µM (inactive). For the same compound, the GI50 [37] was > 100 µM (inactive), the GI50 [38] was > 100 µM (inactive) and the GI50 [39] was > 100 µM (inactive). For the same compound, the GI50 [40] was 65.3 µM (inactive), the GI50 [41] was > 100 µM (inactive) and the GI50 [42] was > 100 µM (inactive). The GI50 [43] was > 100 µM (inactive), the GI50 [44] was > 100 µM (inactive) and the GI50 [45] was > 100 µM (inactive). For the same compound, the GI50 [46] was > 100 µM (inactive), the GI50 [47] was > 100 µM (inactive) and the GI50 [48] was > 100 µM (inactive). For the same compound, the GI50 [49] was > 100 µM (inactive), the GI50 [50] was > 100 µM (inactive) and the GI50 [51] was > 100 µM (inactive). The GI50 [52] was > 100 µM (inactive), the GI50 [53] was > 100 µM (inactive) and the GI50 [54] was > 100 µM (inactive). The GI50 [55] was > 100 µM (inactive) and the GI50 [56] was > 100 µM (inactive).

For `COc1ccc(C[C@H]2COC(=O)[C@@H]2Cc2ccc(Br)cc2)cc1OC`, the GI50 [1] was 15.1 µM (inactive), the GI50 [2] was 20.1 µM (inactive) and the GI50 [3] was 23.3 µM (inactive). For the same compound, the GI50 [4] was 30.7 µM (inactive), the GI50 [5] was 33.3 µM (inactive) and the GI50 [6] was 17.3 µM. The GI50 [7] was 29.7 µM (inactive), the GI50 [8] was 27.8 µM (inactive) and the GI50 [9] was 19.5 µM (inactive). For the same compound, the GI50 [10] was 6.08 µM (inactive), the GI50 [11] was 20 µM (inactive) and the GI50 [12] was 26.9 µM (inactive). The GI50 [13] was 38.2 µM (inactive), the GI50 [14] was 44.7 µM (inactive) and the GI50 [15] was 13 µM (inactive). For the same compound, the GI50 [16] was 28.3 µM (inactive), the GI50 [17] was 17.5 µM (inactive) and the GI50 [18] was 38 µM (inactive). For the same compound, the GI50 [19] was 35 µM (inactive), the GI50 [20] was 22 µM (inactive) and the GI50 [22] was 15.6 µM (inactive). The GI50 [23] was 6.18 µM (inactive), the GI50 [24] was 42.2 µM (inactive) and the GI50 [25] was 20.2 µM (inactive). The GI50 [26] was 16.6 µM (inactive), the GI50 [27] was 27.7 µM (inactive) and the GI50 [28] was 28.6 µM (inactive). The GI50 [29] was 34 µM (inactive), the GI50 [30] was 15.2 µM (inactive) and the GI50 [31] was 19.1 µM (inactive). For the same compound, the GI50 [32] was 23.4 µM (inactive), the GI50 [33] was 14.5 µM (inactive) and the GI50 [57] was 25.4 µM (inactive). The GI50 [34] was 16.8 µM (inactive), the GI50 [35] was 10.7 µM (inactive) and the GI50 [36] was 24 µM (inactive). For the same compound, the GI50 [37] was 17.9 µM (inactive), the GI50 [58] was 13.7 µM (inactive) and the GI50 [38] was 20.7 µM (inactive). For the same compound, the GI50 [39] was 33.6 µM (inactive), the GI50 [40] was 16.1 µM (inactive) and the GI50 [41] was 21.9 µM (inactive). The GI50 [59] was 5.06 µM (inactive), the GI50 [42] was 11.2 µM (inactive) and the GI50 [43] was 21.2 µM (inactive). The GI50 [44] was 33.4 µM (inactive), the GI50 [45] was 11.7 µM (inactive) and the GI50 [46] was 11.5 µM (inactive). The GI50 [47] was 26.5 µM (inactive), the GI50 [48] was 20 µM (inactive) and the GI50 [49] was 18.9 µM (inactive). The GI50 [50] was 19.7 µM (inactive), the GI50 [51] was 30.4 µM (inactive) and the GI50 [52] was 20.4 µM (inactive). For the same compound, the GI50 [53] was 9.06 µM (inactive), the GI50 [54] was 19.9 µM (inactive) and the GI50 [55] was 7.19 µM (inactive). The GI50 [56] was 28.8 µM (inactive).

Reference: ChEMBL document CHEMBL1201862, “PubChem BioAssay data set” (2004)
